Measured values published in patent US11485740B2, “Inhibitors of TRPC6” (Boehringer Ingelheim International GmbH, priority 2018, dated 2022).
pIC50: −log10 of the molar value.

biological target: T1, human TRPC6 (Homo sapiens, UniProt Q9Y210); assay: High throughput screening assay: Fluo4/AM calcium fluorescence in HEK293/TREx cells expressing human TRPC6, agonist GSK1702934A (single concentration 10 μM and IC50 curves); format: cell-based; details: antagonist effect against human TRPC6, 7 concentrations 20 μM to 0.027 μM, triplicate
T1 construct: expressed in transfected cells
T1 sequence (Q9Y210 1-931): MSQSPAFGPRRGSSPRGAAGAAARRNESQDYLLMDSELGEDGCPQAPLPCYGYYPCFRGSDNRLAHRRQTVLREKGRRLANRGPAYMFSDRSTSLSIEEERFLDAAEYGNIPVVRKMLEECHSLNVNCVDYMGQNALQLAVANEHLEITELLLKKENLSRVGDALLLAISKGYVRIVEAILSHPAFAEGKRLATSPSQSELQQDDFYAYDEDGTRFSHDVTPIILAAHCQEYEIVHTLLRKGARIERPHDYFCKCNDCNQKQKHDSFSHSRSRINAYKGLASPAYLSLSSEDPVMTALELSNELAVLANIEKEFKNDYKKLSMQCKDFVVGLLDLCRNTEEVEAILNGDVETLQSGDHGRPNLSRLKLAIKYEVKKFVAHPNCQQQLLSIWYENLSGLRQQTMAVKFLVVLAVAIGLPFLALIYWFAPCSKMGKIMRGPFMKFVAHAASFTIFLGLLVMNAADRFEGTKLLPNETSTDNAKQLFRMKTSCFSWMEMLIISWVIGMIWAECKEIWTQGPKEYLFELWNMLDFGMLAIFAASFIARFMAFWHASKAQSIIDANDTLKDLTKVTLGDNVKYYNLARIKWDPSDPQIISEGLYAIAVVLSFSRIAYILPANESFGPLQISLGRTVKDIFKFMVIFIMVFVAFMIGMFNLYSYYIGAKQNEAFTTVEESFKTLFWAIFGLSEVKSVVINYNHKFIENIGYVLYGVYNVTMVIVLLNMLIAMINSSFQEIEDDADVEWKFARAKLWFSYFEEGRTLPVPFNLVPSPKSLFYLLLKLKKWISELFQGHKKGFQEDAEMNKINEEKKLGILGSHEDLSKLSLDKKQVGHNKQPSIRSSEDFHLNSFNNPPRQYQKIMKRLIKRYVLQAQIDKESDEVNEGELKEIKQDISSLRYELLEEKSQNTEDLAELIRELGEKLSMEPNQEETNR
Summary of the method: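 HEK293/TREx cells stably carrying tetracycline-induced (1 μg/ml) human TRPC6, loaded with Fluo4/AM (0.5 μM, 60 min, RT), pretreated 2 min with compound (10 μM final in screen), then stimulated with GSK1702934A in high-Ca2+ Ringer's (20 mM Ca2+ final). Fluorescence ratio over ~3 min normalized to no-compound and control-blocker wells; IC50 from triplicate curves.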

| Compound | pIC50 |
| --- | --- |
| COc1cc(C(=O)N2CCC(c3ccc(N)nn3)CC2)ccc1-c1ccc(OC2CC2)nc1 [Compound 73, [4-(6-Amino-pyridazin-3-yl)-piperidin-1-yl]-[4-(6-cyclopropoxy-pyridin-3-yl)-3-methoxy-phenyl]-methanone] | 6.29 |
| CC[C@@H](C)Oc1ccc(-c2ccc(C(=O)N3CCC(c4ccc(N)nn4)CC3)cc2OC)cn1 [Compound 74, [4-(6-Amino-pyridazin-3-yl)-piperidin-1-yl]-{4-[6-((R)-sec-butoxy)-pyridin-3-yl]-3-methoxy-phenyl}-methanone] | 6.85 |
| CC[C@H](C)Oc1ccc(-c2ccc(C(=O)N3CCC(c4ccc(N)nn4)CC3)cc2OC)cn1 [Compound 75, [4-(6-Amino-pyridazin-3-yl)-piperidin-1-yl]-{4-[6-((S)-sec-butoxy)-pyridin-3-yl]-3-methoxy-phenyl}-methanone] | 7.04 |
| COc1cc(C(=O)N2CCC(c3ccc(N)nn3)CC2)ccc1-c1ccc(OCC2CC2(F)F)nc1 (stereo not drawn) [Compound 76, [4-(6-Amino-pyridazin-3-yl)-piperidin-1-yl]{4-[6-(2,2-difluoro-cyclopropylmethoxy)-pyridin-3-yl]-3-methoxy-phenyl}-methanone] | 6.42 |
| COc1cc(C(=O)N2CCC(c3ccc(N)nn3)CC2)ccc1-c1ccc(O[C@@H](C)C2CC2)nc1 [Compound 78, [4-(6-Amino-pyridazin-3-yl)-piperidin-1-yl]-{4-[6-((S)-1-cyclopropyl-ethoxy)-pyridin-3-yl]-3-methoxy-phenyl}-methanone] | 6.34 |
| COc1cc(C(=O)N2CCC(c3ccc(N)nn3)CC2)ccc1-c1ccc(OCC2CC2)nc1 [Compound 82, [4-(6-Amino-pyridazin-3-yl)-piperidin-1-yl]-[4-(6-cyclopropylmethoxy-pyridin-3-yl)-3-methoxy-phenyl]-methanone] | 6.47 |
| CC(C)Cc1ccc(-c2ccc(C(=O)N3CCC(c4ccc(N)nn4)CC3)cc2)cc1 [Compound 83, [4-(6-Amino-pyridazin-3-yl)-piperidin-1-yl]-(4′-isobutyl-biphenyl-4-yl)-methanone] | 5.06 |
| COc1cc(C(=O)N2CCC(c3nnc(N)cc3OC)CC2)ncc1-c1ccc(C(F)(F)F)cc1 [Compound 85, [4-(6-Amino-4-methoxy-pyridazin-3-yl)-piperidin-1-yl]-[4-methoxy-5-(4-trifluoromethyl-phenyl)-pyridin-2-yl]-methanone] | 6.46 |
| COc1cc(C(=O)N2CCC(c3nnc(N)cc3OC)CC2)ncc1-c1ccc(C(F)(F)F)nc1 [Compound 86, [4-(6-Amino-4-methoxy-pyridazin-3-yl)-piperidin-1-yl]-(4-methoxy-6′-trifluoromethyl-[3,3′]bipyridinyl-6-yl)-methanone] | 6.18 |
| COc1cc(C(=O)N2CCC(c3nnc(N)cc3OC)CC2)ncc1-c1ccccc1 [Compound 87, [4-(6-Amino-4-methoxy-pyridazin-3-yl)-piperidin-1-yl]-(4-methoxy-5-phenyl-pyridin-2-yl)-methanone] | 6.27 |
| COc1cc(C(=O)N2CCN(c3cnc(N)cc3OC)C[C@H]2CO)ncc1-c1ccccc1 [Compound 89, [(S)-4-(6-Amino-4-methoxy-pyridin-3-yl)-2-hydroxymethyl-piperazin-1-yl]-(4-methoxy-5-phenyl-pyridin-2-yl)-methanone] | 6.27 |
| COc1cc(C(=O)N2CCN(c3ccc(N)nc3)C[C@@H]2CO)ncc1-c1ccc(F)cc1 [Compound 90, [(R)-4-(6-Amino-pyridin-3-yl)-2-hydroxymethyl-piperazin-1-yl]-[5-(4-fluoro-phenyl)-4-methoxy-pyridin-2-yl]-methanone] | 6.43 |
| COc1cc(C(=O)N2CCN(c3cnc(N)cc3OC)C[C@@H]2CO)ncc1-c1ccc(C(F)(F)F)cc1 [Compound 95, [(R)-4-(6-Amino-4-methoxy-pyridin-3-yl)-2-hydroxymethyl-piperazin-1-yl]-[4-methoxy-5-(4-trifluoromethyl-phenyl)-pyridin-2-yl]-methanone] | 6.24 |
| COc1cc(C(=O)N2CCN(c3cnc(N)cc3OC)C[C@@H]2CO)ncc1-c1ccccc1 [Compound 96, [(R)-4-(6-Amino-4-methoxy-pyridin-3-yl)-2-hydroxymethyl-piperazin-1-yl]-(4-methoxy-5-phenyl-pyridin-2-yl)-methanone] | 6.49 |

Other lines, results leading:

| pIC50 | Compound |
| --- | --- |
| 6.80 | COc1cc(C(=O)N2CCC(c3ccc(N)nn3)CC2)ccc1-c1ccc(OCC2CC2(C)C)nc1 (stereo not drawn) [Compound 77, [4-(6-Amino-pyridazin-3-yl)-piperidin-1-yl]-{4-[6-(2,2-dimethyl-cyclopropylmethoxy)-pyridin-3-yl]-3-methoxy-phenyl}-methanone] |
| 6.92 | COc1cc(C(=O)N2CCC(c3ccc(N)nn3)CC2)ccc1-c1ccc(OCC2(C)CC2)nc1 [Compound 79, 6-[1-(3-Methoxy-4-{6-[(1-methylcyclopropyl)methoxy]pyridin-3-yl}benzoyl)piperidin-4-yl]pyridazin-3-amine] |
| 6.89 | COc1cc(C(=O)N2CCC(c3ccc(N)nn3)CC2)ccc1-c1ccc(OCC2(CF)CC2)nc1 [Compound 80, [4-(6-Amino-pyridazin-3-yl)-piperidin-1-yl]-{4-[6-(1-fluoromethyl-cyclopropylmethoxy)-pyridin-3-yl]-3-methoxy-phenyl}-methanone] |
| 6.66 | COc1cc(C(=O)N2CCC(c3ccc(N)nn3)CC2)ccc1-c1ccc(O[C@H](C)C2CC2)nc1 [Compound 81, [4-(6-Amino-pyridazin-3-yl)-piperidin-1-yl]-{4-[6-((R)-1-cyclopropyl-ethoxy)-pyridin-3-yl]-3-methoxy-phenyl}-methanone] |
| 6.89 | COc1cc(C(=O)N2CCC(c3cnc(N)cc3OC)CC2)ncc1-c1ccc(C(F)(F)F)cc1 [Compound 84, (6-Amino-4-methoxy-3′,4′,5′,6′-tetrahydro-2′H-[3,4′]bipyridinyl-1′-yl)-[4-methoxy-5-(4-trifluoromethyl-phenyl)-pyridin-2-yl]-methanone] |
| 6.55 | COc1cc(C(=O)N2CCC(c3nnc(N)cc3C)CC2)ncc1-c1ccc(C(F)(F)F)cc1 [Compound 88, [4-(6-Amino-4-methyl-pyridazin-3-yl)-piperidin-1-yl]-[4-methoxy-5-(4-trifluoromethyl-phenyl)-pyridin-2-yl]-methanone] |
| 6.52 | COc1cc(C(=O)N2CCN(c3ccc(N)nc3)C[C@@H]2CO)ncc1-c1ccccc1 [Compound 91, [(R)-4-(6-Amino-pyridin-3-yl)-2-hydroxymethyl-piperazin-1-yl]-(4-methoxy-5-phenyl-pyridin-2-yl)-methanone] |
| 7.25 | COc1cc(C(=O)N2CCN(c3cnc(N)cc3C)C[C@@H]2CO)ncc1-c1ccc(C(F)(F)F)cc1 [Compound 92, [(R)-4-(6-Amino-4-methyl-pyridin-3-yl)-2-hydroxymethyl-piperazin-1-yl]-[4-methoxy-5-(4-trifluoromethyl-phenyl)-pyridin-2-yl]-methanone] |
| 7.57 | COc1cc(C(=O)N2CCN(c3cnc(N)cc3C)C[C@@H]2CO)ncc1-c1ccc(F)cc1 [Compound 93, [(R)-4-(6-Amino-4-methyl-pyridin-3-yl)-2-hydroxymethyl-piperazin-1-yl]-[5-(4-fluoro-phenyl)-4-methoxy-pyridin-2-yl]-methanone] |
| 7.57 | COc1cc(C(=O)N2CCN(c3cnc(N)cc3C)C[C@@H]2CO)ncc1-c1ccccc1 [Compound 94, [(R)-4-(6-Amino-4-methyl-pyridin-3-yl)-2-hydroxymethyl-piperazin-1-yl]-(4-methoxy-5-phenyl-pyridin-2-yl)-methanone] |
| 7.16 | COc1cc(C(=O)N2CCC(c3ccc(N)nc3)CC2)ncc1-c1ccc(C(F)(F)F)nc1 [Compound 97, (6-Amino-3′,4′,5′,6′-tetrahydro-2′H-[3,4′]bipyridinyl-1′-yl)-(4-methoxy-6′-trifluoromethyl-[3,3′]bipyridinyl-6-yl)-methanone] |
| 6.70 | COC[C@H]1CN(c2cnc(N)cc2OC)CCN1C(=O)c1cc(OC)c(-c2ccc(F)cc2)cn1 [Compound 98, [(R)-4-(6-Amino-4-methoxy-pyridin-3-yl)-2-methoxymethyl-piperazin-1-yl]-[5-(4-fluoro-phenyl)-4-methoxy-pyridin-2-yl]-methanone] |
| 6.52 | COC[C@H]1CN(c2cnc(N)cc2OC)CCN1C(=O)c1cc(OC)c(-c2ccc(C(F)(F)F)cc2)cn1 [Compound 99, [(R)-4-(6-Amino-4-methoxy-pyridin-3-yl)-2-methoxymethyl-piperazin-1-yl]-[4-methoxy-5-(4-trifluoromethyl-phenyl)-pyridin-2-yl]-methanone] |
